According to patent US6949383B2 (priority 1998, dated 2005):

Assays:
[1] = system: wild type (dnaQ+ strain); assay: Ampicillin concentration-survival (colony forming) after mutagenesis runs, with or without MNNG; format: cell-based, Escherichia coli; conditions: for Maximum concentration for ampicillin resistance: wild type and MNNG wild type
[2] = system: dnaQ49 strain; assay: Ampicillin concentration-survival (colony forming) after mutagenesis runs; format: cell-based, Escherichia coli; conditions: for AC: Ampicillin Concentration (maximum concentration for ampicillin resistance): dnaQ49 strain
[3] = system: Super-Amp-resistant dnaQ; format: cell-based, Escherichia coli
[4] = system: dnaQ; format: cell-based, Escherichia coli
[5] = system: ampicillin-resistant Escherichia coli; conditions: resistance due to plasmid; cited from earlier work
[6] = system: Wild-Type; format: cell-based, Escherichia coli
[7] = system: dnaQ+ strain (wild type); format: cell-based, Escherichia coli
[8] = system: Super-Nali.-resisting dnaQ; assay: Minimum growth inhibiting concentration (MIC) of antibiotic substances; format: cell-based, Escherichia coli
[9] = system: dnaQ49 strain; assay: Drug resistance reached by repeated mutagenesis and selection (Example 2); format: cell-based, Escherichia coli
[10] = system: Super-Stre.-resisting dnaQ; assay: Minimum growth inhibiting concentration (MIC) of antibiotic substances; format: cell-based, Escherichia coli
[11] = mutagenesis treatment for 1 time
[12] = mutagenesis treatments for 2 times
[13] = mutagenesis treatments for 3 times
[14] = mutagenesis treatments for 4 times
[15] = mutagenesis treatments for 5 times
[16] = mutagenesis treatments for 6 times
[17] = mutagenesis treatments for 7 times
[18] = mutagenesis treatments for 8 times
[19] = mutagenesis treatments for 9 times
[20] = mutagenesis treatments for 10 times
[21] = mutagenesis treatments for 11 times
[22] = mutagenesis treatments for 12 times
[23] = mutagenesis treatments for 13 times
[24] = mutagenesis treatments for 14 times
[25] = mutagenesis treatments for 15 times
[26] = mutagenesis treatments for 16 times
[27] = mutagenesis treatments for 17 times
[28] = mutagenesis treatments for 18 times
[29] = mutagenesis treatments for 19 times
[30] = mutagenesis treatments for 20 times
[31] = mutagenesis treatments for 21 times
[32] = mutagenesis treatments for 22 times
[33] = mutagenesis treatments for 23 times

## CC1(C)S[C@@H]2[C@H](NC(=O)[C@H](N)c3ccccc3)C(=O)N2[C@H]1C(=O)O [Ampicillin]
[1]; MNNG-treated group, low-concentration treatment
  Ampicillin resistance of resistant microorganism obtained: 300 µg/mL
[1]; Wild type (MNNG Concn 0), 1st Run
  AC: Ampicillin Concentration (maximum concentration for ampicillin resistance): 3 µg/mL
[1]; Wild type (MNNG Concn 0), 2nd Run
  AC: Ampicillin Concentration (maximum concentration for ampicillin resistance): 10 µg/mL
[1]; Wild type (MNNG Concn 0), 3rd Run
  AC: Ampicillin Concentration (maximum concentration for ampicillin resistance): 10 µg/mL
[1]; Wild type (MNNG Concn 0), 4th Run
  AC: Ampicillin Concentration (maximum concentration for ampicillin resistance): 10 µg/mL
[1]; Wild type (MNNG Concn 0), 5th Run
  AC: Ampicillin Concentration (maximum concentration for ampicillin resistance): 60 µg/mL
[1]; Wild type (MNNG Concn 1), 1st Run
  AC: Ampicillin Concentration (maximum concentration for ampicillin resistance): 3 µg/mL
[1]; Wild type (MNNG Concn 1), 2nd Run
  AC: Ampicillin Concentration (maximum concentration for ampicillin resistance): 10 µg/mL
[1]; Wild type (MNNG Concn 1), 3rd Run
  AC: Ampicillin Concentration (maximum concentration for ampicillin resistance): 10 µg/mL
[1]; Wild type (MNNG Concn 1), 4th Run
  AC: Ampicillin Concentration (maximum concentration for ampicillin resistance): 10 µg/mL
[1]; Wild type (MNNG Concn 1), 5th Run
  AC: Ampicillin Concentration (maximum concentration for ampicillin resistance): 60 µg/mL
[1]; Wild type (MNNG Concn 3), 1st Run
  AC: Ampicillin Concentration (maximum concentration for ampicillin resistance): 3 µg/mL
[1]; Wild type (MNNG Concn 3), 2nd Run
  AC: Ampicillin Concentration (maximum concentration for ampicillin resistance): 30 µg/mL
[1]; Wild type (MNNG Concn 3), 3rd Run
  AC: Ampicillin Concentration (maximum concentration for ampicillin resistance): 100 µg/mL
[1]; Wild type (MNNG Concn 3), 4th Run
  AC: Ampicillin Concentration (maximum concentration for ampicillin resistance): 300 µg/mL
[1]; Wild type (MNNG Concn 6), 1st Run
  AC: Ampicillin Concentration (maximum concentration for ampicillin resistance): 3 µg/mL
[1]; Wild type (MNNG Concn 6), 2nd Run
  AC: Ampicillin Concentration (maximum concentration for ampicillin resistance): 6 µg/mL
[1]; Wild type (MNNG Concn 6), 3rd Run
  AC: Ampicillin Concentration (maximum concentration for ampicillin resistance): 10 µg/mL
[1]; Wild type (MNNG Concn 6), 4th Run
  AC: Ampicillin Concentration (maximum concentration for ampicillin resistance): 10 µg/mL
[1]; Wild type (MNNG Concn 6), 5th Run
  AC: Ampicillin Concentration (maximum concentration for ampicillin resistance): 30 µg/mL
[1]; Wild type (MNNG Concn 10), 1st Run
  AC: Ampicillin Concentration (maximum concentration for ampicillin resistance): 6 µg/mL
[1]; Wild type (MNNG Concn 30), 1st Run
  AC: Ampicillin Concentration (maximum concentration for ampicillin resistance): 3 µg/mL
[1]; after first mutagenesis
  Maximum concentration for ampicillin resistance: 3˜6 μg/ml
[1]; after second mutagenesis
  Maximum concentration for ampicillin resistance: 6˜30 μg/ml
[2]; another dnaQ49 strain, five mutagenesis treatments (FIG. 7)
  Ampicillin resistance of strain obtained: about 10,000 g/ml
[2]; dnaQ49 strain before introduction of mutation, compared with wild type, 24° C., two days
  Ampicillin resistance from concentration-survival curve: slightly stronger ampicillin resistance than the wild type
[2]; 1st Run of mutagenesis
  AC: Ampicillin Concentration (maximum concentration for ampicillin resistance): 30 µg/mL
[2]; 2nd Run of mutagenesis
  AC: Ampicillin Concentration (maximum concentration for ampicillin resistance): 300 µg/mL
[2]; 3rd Run of mutagenesis
  AC: Ampicillin Concentration (maximum concentration for ampicillin resistance): 1000 µg/mL
[2]; 4th Run of mutagenesis
  AC: Ampicillin Concentration (maximum concentration for ampicillin resistance): 3000 µg/mL
[2]; 5th Run of mutagenesis
  AC: Ampicillin Concentration (maximum concentration for ampicillin resistance): 6000 µg/mL
[2]; 5th Run of mutagenesis, listed as ampicillin
  AC: Ampicillin Concentration (maximum concentration for ampicillin resistance): about 6,000 μg/ml
[3]
  Minimum growth inhibiting concentration (MIC): 2048
[4]
  Minimum growth inhibiting concentration (MIC): 2
[5]
  Resistance concentration of ampicillin-resistant Escherichia coli reported up to now: 1,500 μg/ml
[6]
  Minimum growth inhibiting concentration (MIC): 1

## CO/N=C(\C(=O)N[C@@H]1C(=O)N2C(C(=O)O)=C(COC(C)=O)CS[C@H]12)c1csc(N)n1 [Cefotaxime]
[3]
  Minimum growth inhibiting concentration (MIC): 64
  Resistance of ampicillin-resistant dnaQ49 strain to other antibiotic substances (MIC investigation): strong resistance
[4]
  Minimum growth inhibiting concentration (MIC): 0.0313
[6]
  Minimum growth inhibiting concentration (MIC): 0.0156

## O=C(N[C@H](CO)[C@H](O)c1ccc([N+](=O)[O-])cc1)C(Cl)Cl [Chloramphenicol]
[3]
  Minimum growth inhibiting concentration (MIC): 0.5
[4]
  Minimum growth inhibiting concentration (MIC): 1
[6]
  Minimum growth inhibiting concentration (MIC): 0.5

## CCn1cc(C(=O)O)c(=O)c2ccc(C)nc21 [Nalidixic acid]
[7]
  Growth of dnaQ+ strain (wild type) in the presence of drug: *3) dnaQ+ strain (wild type) did not grow in the presence of 10 μg/ml of nalidixic acid.
[8]
  Minimum growth inhibiting concentration (MIC): 2048
[3]
  Minimum growth inhibiting concentration (MIC): 0.5
[4]
  Minimum growth inhibiting concentration (MIC): 1
[9]; [11]
  Concentration of Nalidixic Acid: 1 µg/mL
[9]; [12]
  Concentration of Nalidixic Acid: 10 µg/mL
[9]; [13]
  Concentration of Nalidixic Acid: 100 µg/mL
[9]; [14]
  Concentration of Nalidixic Acid: 200 µg/mL
[9]; [15]
  Concentration of Nalidixic Acid: 400 µg/mL
[9]; [16]
  Concentration of Nalidixic Acid: 600 µg/mL
[9]; [17]
  Concentration of Nalidixic Acid: 1000 µg/mL
[9]; [18]
  Concentration of Nalidixic Acid: 1100 µg/mL
[9]; [19]
  Concentration of Nalidixic Acid: 1200 µg/mL
[9]; [20]
  Concentration of Nalidixic Acid: 1300 µg/mL
[9]; [21]
  Concentration of Nalidixic Acid: 1400 µg/mL
[9]; [22]
  Concentration of Nalidixic Acid: 1600 µg/mL
[9]; [23]
  Concentration of Nalidixic Acid: 1800 µg/mL
[9]; [24]
  Concentration of Nalidixic Acid: 2000 µg/mL
[9]; [25]
  Concentration of Nalidixic Acid: 2500 µg/mL
[9]; [26]
  Concentration of Nalidixic Acid: 3000 µg/mL
[9]; [27]
  Concentration of Nalidixic Acid: 4000 µg/mL
[9]; [28]
  Concentration of Nalidixic Acid: 5000 µg/mL
[9]; [29]
  Concentration of Nalidixic Acid: 6000 µg/mL
[9]; [30]
  Concentration of Nalidixic Acid: 6200 µg/mL
[9]; [31]
  Concentration of Nalidixic Acid: 6400 µg/mL
[9]; [32]
  Concentration of Nalidixic Acid: 6600 µg/mL
[9]; [33]
  Concentration of Nalidixic Acid: 6800 µg/mL
[9]; mutagenesis treatments for 24 times, listed as Nalidixic Acid
  Concentration of Nalidixic Acid: 7000 µg/mL
[9]; mutagenesis treatments for 24 times, listed as nalidixic acid
  Concentration of Nalidixic Acid: 7,000 μg/ml
[6]
  Minimum growth inhibiting concentration (MIC): 2

## CO[C@H]1/C=C/O[C@@]2(C)Oc3c(C)c(O)c4c(O)c(c(/C=N/N5CCN(C)CC5)c(O)c4c3C2=O)NC(=O)/C(C)=C\C=C\[C@H](C)[C@H](O)[C@@H](C)[C@@H](O)[C@@H](C)[C@H](OC(C)=O)[C@@H]1C [Rifampicin]
[3]
  Minimum growth inhibiting concentration (MIC): 2
[4]
  Minimum growth inhibiting concentration (MIC): 8
[6]
  Minimum growth inhibiting concentration (MIC): 4

## [H]/N=C(/N)N[C@H]1[C@H](O)[C@@H](O)[C@H](O[C@@H]2O[C@@H](C)[C@](O)(C=O)[C@H]2O[C@@H]2O[C@@H](CO)[C@H](O)[C@@H](O)[C@@H]2NC)[C@@H](N/C(N)=N\[H])[C@@H]1O [Streptomycin]
[10]
  Minimum growth inhibiting concentration (MIC): 2048
[7]
  Growth of dnaQ+ strain (wild type) in the presence of drug: *3) dnaQ+ strain (wild type) did not grow in the presence of 10 μg/ml of streptomycin.
[3]
  Minimum growth inhibiting concentration (MIC): 0.5
[4]
  Minimum growth inhibiting concentration (MIC): 1
[9]; [11]
  Concentration of Streptomycin: 1 µg/mL
[9]; [12]
  Concentration of Streptomycin: 10 µg/mL
[9]; [13]
  Concentration of Streptomycin: 100 µg/mL
[9]; [14]
  Concentration of Streptomycin: 1000 µg/mL
[9]; [15]
  Concentration of Streptomycin: 3000 µg/mL
[9]; [16]
  Concentration of Streptomycin: 4000 µg/mL
[9]; [17]
  Concentration of Streptomycin: 6000 µg/mL
[9]; [18]
  Concentration of Streptomycin: 8000 µg/mL
[9]; [19]
  Concentration of Streptomycin: 9000 µg/mL
[9]; [20]
  Concentration of Streptomycin: 10000 µg/mL
[9]; [21]
  Concentration of Streptomycin: 12000 µg/mL
[9]; [22]
  Concentration of Streptomycin: 14000 µg/mL
[9]; [23]
  Concentration of Streptomycin: 16000 µg/mL
[9]; [24]
  Concentration of Streptomycin: 17000 µg/mL
[9]; [25]
  Concentration of Streptomycin: 18000 µg/mL
[9]; [26]
  Concentration of Streptomycin: 19000 µg/mL
[9]; [27]
  Concentration of Streptomycin: 20000 µg/mL
[9]; [28]
  Concentration of Streptomycin: 21000 µg/mL
[9]; [29]
  Concentration of Streptomycin: 22000 µg/mL
[9]; [30]
  Concentration of Streptomycin: 23000 µg/mL
[9]; [31]
  Concentration of Streptomycin: 24000 µg/mL
[9]; [32]
  Concentration of Streptomycin: 25000 µg/mL
[9]; [33]
  Concentration of Streptomycin: 26000 µg/mL
[9]; mutagenesis treatments for 23 times, listed as streptomycin
  Concentration of Streptomycin: 26,000 μg/ml
[6]
  Minimum growth inhibiting concentration (MIC): 1
